Experimental findings from ChEMBL document CHEMBL1828558, “Discovery of (+)-N-(3-aminopropyl)-N-[1-(5-benzyl-3-methyl-4-oxo-[1,2]thiazolo[5,4-d]pyrimidin-6-yl)-2-methylpropyl]-4-methylbenzamide (AZD4877), a kinesin spindle protein inhibitor and potential anticancer agent” (J Med Chem, 2011) are described below.

Data set [1] is described as follows: Plasma protein binding in human. Format: ADME, cell-free. The following applies: read-out: PPB (converted).
A short description of data set [2]: Plasma protein binding in Wistar rat. Format: ADME, cell-free. The conditions noted are these: read-out: PPB (converted).
A further data set is filed under the species Rattus norvegicus. The experiment in a line: Hepatic blood flow in Wistar rat. Format: ADME, organism-based, Liver.
A short description of data set [3]: Half-life in rat at 1 and 5 mg/kg, iv administered as bolus dose. Format: ADME, organism-based. Details: dose 5 mg/kg, route intravenous. The following applies: in vivo.
The nature of data set [4]: AUC (infinity) in Wistar rat at 6 mg/kg, iv administered as a single bolus dose. Format: ADME, organism-based. Further details: time infinity, dose 6 mg/kg, route intravenous. The conditions noted are these: plasma.
A short description of data set [5]: Drug level in fiber in Hans Wistar rat hollow fiber model implanted with human COLO205 cells at 6 mg/kg, iv after 24 hrs. Format: ADME, organism-based, COLO 205. Further details: dose 6 mg/kg, route intravenous. The conditions noted are these: read-out: Drug uptake.
Data set [6] can be described thus: Binding affinity to L-type calcium channel in guinea pig ileum by radioligand displacement assay. Format: tissue-based, Cavia porcellus. On the technique in general: Displacement assays read how much labelled ligand stays bound in the presence of the test substance.
The nature of data set [7]: Binding affinity to sodium channel in guinea pig atria by radioligand displacement assay. Further details: species or system Cavia porcellus.
Data set [8] has as its target T1, Kinesin-like protein KIF11 (Homo sapiens, UniProt P52732).
T1 sequence (P52732 whole entry): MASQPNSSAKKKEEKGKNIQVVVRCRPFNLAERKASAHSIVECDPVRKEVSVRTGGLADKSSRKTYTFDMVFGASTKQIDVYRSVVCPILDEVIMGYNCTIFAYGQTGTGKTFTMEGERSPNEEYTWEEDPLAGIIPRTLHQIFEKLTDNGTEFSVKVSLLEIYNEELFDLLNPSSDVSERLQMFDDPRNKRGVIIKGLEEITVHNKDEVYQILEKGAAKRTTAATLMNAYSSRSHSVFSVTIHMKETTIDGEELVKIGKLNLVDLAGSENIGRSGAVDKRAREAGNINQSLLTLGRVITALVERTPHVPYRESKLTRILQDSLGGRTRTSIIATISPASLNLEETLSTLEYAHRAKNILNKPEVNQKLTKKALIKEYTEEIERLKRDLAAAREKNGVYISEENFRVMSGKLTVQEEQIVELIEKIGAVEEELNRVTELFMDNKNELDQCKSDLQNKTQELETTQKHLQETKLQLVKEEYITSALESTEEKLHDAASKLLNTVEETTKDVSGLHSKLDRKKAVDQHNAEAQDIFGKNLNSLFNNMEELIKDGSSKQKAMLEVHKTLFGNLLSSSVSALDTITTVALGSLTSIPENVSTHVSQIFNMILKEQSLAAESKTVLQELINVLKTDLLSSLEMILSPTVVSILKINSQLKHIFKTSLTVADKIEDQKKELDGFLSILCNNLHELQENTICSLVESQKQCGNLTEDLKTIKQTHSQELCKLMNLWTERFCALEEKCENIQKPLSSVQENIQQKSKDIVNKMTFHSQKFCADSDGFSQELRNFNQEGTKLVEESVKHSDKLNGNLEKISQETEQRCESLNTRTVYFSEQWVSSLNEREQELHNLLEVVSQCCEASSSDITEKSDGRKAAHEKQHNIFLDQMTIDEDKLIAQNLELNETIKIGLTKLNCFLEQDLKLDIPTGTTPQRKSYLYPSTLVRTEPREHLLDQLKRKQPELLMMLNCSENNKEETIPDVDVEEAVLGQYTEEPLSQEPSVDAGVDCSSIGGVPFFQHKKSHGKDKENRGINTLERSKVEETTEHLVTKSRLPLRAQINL
The experiment in a line: Inhibition of human recombinant C-terminal His6-tagged KSP ATPase activity after 1 hr by malachite green assay.

The next data set has as its system COLO 205. Nature of the data set: Anticancer activity against human COLO205 cells after 72 hrs by MTS/PMS assay. Format: functional, cell-based. The following applies: colo 205.
The next data set deals with T2, Cytochrome P450 1A2 (Homo sapiens, UniProt P05177).
T2 sequence (P05177 whole entry): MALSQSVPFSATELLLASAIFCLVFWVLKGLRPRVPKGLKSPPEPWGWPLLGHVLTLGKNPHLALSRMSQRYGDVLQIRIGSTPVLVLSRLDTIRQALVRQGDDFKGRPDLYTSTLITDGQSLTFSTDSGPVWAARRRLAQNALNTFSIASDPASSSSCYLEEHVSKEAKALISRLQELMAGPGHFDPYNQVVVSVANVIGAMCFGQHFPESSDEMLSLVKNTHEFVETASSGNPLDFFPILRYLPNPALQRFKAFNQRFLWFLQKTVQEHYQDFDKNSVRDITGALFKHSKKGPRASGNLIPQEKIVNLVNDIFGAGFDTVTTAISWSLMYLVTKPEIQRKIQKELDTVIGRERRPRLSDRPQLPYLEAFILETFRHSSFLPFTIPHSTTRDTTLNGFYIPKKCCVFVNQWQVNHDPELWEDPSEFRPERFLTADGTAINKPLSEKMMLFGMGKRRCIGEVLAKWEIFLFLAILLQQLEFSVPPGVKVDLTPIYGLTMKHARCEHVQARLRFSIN
Nature of the data set: Inhibition of human recombinant CYP1A2. Format: ADME.

Another data set deals with Cytochrome P450 2C9 (Homo sapiens, UniProt P11712). The experiment in a line: Inhibition of human recombinant CYP2C9. Format: ADME.
Sequence of Cytochrome P450 2C9 (P11712 whole entry): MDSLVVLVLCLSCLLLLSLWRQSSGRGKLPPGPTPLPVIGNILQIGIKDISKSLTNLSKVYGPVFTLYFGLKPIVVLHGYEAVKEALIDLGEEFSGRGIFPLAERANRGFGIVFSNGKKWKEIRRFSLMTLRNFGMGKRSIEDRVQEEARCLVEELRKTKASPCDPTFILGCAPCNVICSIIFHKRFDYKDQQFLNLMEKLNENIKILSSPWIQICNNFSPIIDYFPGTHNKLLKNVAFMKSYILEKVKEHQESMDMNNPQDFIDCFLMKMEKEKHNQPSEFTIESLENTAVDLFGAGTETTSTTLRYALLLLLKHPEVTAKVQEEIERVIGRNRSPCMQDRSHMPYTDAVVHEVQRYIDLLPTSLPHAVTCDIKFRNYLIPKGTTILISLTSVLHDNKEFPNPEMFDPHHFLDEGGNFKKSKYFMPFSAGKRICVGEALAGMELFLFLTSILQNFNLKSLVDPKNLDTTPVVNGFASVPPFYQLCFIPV
Another data set has as its target Cytochrome P450 3A4 (Homo sapiens, UniProt P08684). The experiment in a line: Inhibition of human recombinant CYP3A4. Format: ADME.
Another data set has as its target T3, Kinesin-1 heavy chain (Homo sapiens, UniProt P33176).
T3 sequence (P33176 whole entry): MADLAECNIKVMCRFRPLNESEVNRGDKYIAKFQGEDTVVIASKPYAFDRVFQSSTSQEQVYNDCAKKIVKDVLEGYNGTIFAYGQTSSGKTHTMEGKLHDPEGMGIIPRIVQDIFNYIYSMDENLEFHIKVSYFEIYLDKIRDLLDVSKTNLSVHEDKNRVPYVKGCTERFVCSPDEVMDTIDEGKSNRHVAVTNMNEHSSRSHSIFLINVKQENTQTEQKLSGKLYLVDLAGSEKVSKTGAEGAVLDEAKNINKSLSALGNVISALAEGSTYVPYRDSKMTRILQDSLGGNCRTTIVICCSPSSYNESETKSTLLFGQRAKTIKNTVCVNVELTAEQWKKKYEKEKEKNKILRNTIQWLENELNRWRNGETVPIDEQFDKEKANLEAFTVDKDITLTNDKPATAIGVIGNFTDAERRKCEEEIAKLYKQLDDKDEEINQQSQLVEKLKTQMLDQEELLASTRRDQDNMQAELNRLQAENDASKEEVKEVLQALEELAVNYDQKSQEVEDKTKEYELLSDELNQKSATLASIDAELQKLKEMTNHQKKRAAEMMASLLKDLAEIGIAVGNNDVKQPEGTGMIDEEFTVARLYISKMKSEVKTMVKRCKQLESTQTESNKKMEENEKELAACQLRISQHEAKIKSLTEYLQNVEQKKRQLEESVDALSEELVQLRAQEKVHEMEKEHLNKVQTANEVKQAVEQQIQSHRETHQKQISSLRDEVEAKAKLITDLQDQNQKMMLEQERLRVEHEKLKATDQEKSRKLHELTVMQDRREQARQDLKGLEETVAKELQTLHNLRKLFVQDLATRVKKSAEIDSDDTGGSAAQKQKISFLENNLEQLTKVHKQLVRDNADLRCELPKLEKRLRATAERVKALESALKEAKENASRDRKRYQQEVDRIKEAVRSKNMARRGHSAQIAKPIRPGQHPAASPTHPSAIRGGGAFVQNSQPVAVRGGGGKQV
The experiment in a line: Inhibition of human GST-conventional kinesin ATPase activity after 20 mins by malachite green assay.

Structures are written as SMILES.

Sequence of Cytochrome P450 3A4 (P08684 whole entry): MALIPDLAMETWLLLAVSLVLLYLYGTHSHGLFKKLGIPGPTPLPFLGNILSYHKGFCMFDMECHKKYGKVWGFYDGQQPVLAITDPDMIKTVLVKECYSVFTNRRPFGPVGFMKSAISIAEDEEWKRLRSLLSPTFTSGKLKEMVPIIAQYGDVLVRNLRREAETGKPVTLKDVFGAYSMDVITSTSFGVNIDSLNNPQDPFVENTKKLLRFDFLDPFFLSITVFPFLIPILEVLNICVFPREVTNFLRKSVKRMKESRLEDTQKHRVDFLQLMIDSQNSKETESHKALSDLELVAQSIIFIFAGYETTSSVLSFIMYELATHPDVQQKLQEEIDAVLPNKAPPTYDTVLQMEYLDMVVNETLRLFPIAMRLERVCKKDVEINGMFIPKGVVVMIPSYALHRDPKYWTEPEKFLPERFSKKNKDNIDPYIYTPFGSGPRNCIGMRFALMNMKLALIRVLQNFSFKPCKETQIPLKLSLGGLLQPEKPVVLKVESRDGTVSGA

Regarding `Cc1ccc(C(=O)N(CCCN)C(c2nc3snc(C)c3c(=O)n2Cc2ccccc2)C(C)C)cc1` (single isomer, unassigned; (+)) [AZD-4877], the values for the fraction unbound in data set [1] and in [2] were 0.046 and 0.044, respectively. In the data set filed under Rattus norvegicus, this molecule yielded a QH of 52%. The half-life (in general, the time in which the quantity being followed falls by half) in [3] was 3.5 h. Besides, the AUC(0-inf) – broadly, total exposure, with the tail of the curve extrapolated – in data set [4] worked out at 2840 ng·h/mL. In addition, the concentration at 24 h in data set [5] came out at 30.7 ng/mL. The IC50 (as a rule, the concentration that inhibits the measured activity by half) in data set [6] is 2700 nM; in [7], more than 30000 nM; in data set [8], 2 nM; in the data set on COLO 205, 3 nM; at Cytochrome P450 1A2, more than 10000 nM; on Cytochrome P450 2C9, more than 10000 nM. Further, the IC50 was more than 10000 nM on Cytochrome P450 3A4 and more than 100000 nM on Kinesin-1 heavy chain.
